{"source": "paper PMC11897554", "about": "“Pharmacokinetic effect of disease severity and use of extracorporeal membrane oxygenation in critically ill Asian patients receiving vancomycin” (Frontiers in Pharmacology, 2025)", "key": {"[1]": {"assay": "Population pharmacokinetic analysis (nonlinear mixed-effects, one-compartment) of vancomycin therapeutic drug monitoring data in critically ill patients", "excerpt": "This retrospective study used medical records of critically ill patients hospitalized in Kaohsiung Veterans General Hospital, Taiwan, from 1 January 2014, to 31 December 2016. The study was approved by the Kaohsiung Veteran General Hospital Institutional Review Board (certificate number VGHKS18-CT9-12). A waiver of informed consent was granted as the data were collected retrospectively from medical records. The identity of the study subjects was masked through the use of a study identifier. Data were de-identified. […] Patients were excluded if vancomycin concentrations in blood could not be detected or if there were incomplete data on the vancomycin regimen. As per the study protocol the blood samples were collected >1 h after the end of dose administration (peak concentration) and within 30 min before the next dose (trough concentration). Trough and peak concentrations obtained after administering at least four equal repeated doses were referred to as the steady-state concentrations.\nData abstracted included height, weight, age, principal diagnosis at admission, whether an open-heart surgery had been performed, serum creatinine concentrations, whether extracorporeal membrane oxygenation (ECMO), and vancomycin dosage, frequency, route, speed, and administration time indications for the use of vancomycin. The estimated glomerular filtration rate (eGFR) was calculated using the bedside Schwartz equation from serum creatinine values ([Schwartz et al., 2009]). There were nine distinct diagnostic categories at admission. To improve simplicity and interpretability, diagnoses were grouped into two major categories based on clinical differences, depending on the severity of the bacterial infection for which vancomycin was used. The first category (severe infections) corresponded to people diagnosed with pneumonia/bacteremia/osteomyelitis/meningitis/deep tissue infection, and the second category (mild infections) included people diagnosed with cellulitis/surgical prevention/neutropenic fever/others.\nVancomycin plasma concentrations were transformed into their natural logarithms. The corresponding concentration versus time plot was placed on a logarithmic scale for all the subjects to address normality. The concentration-time profiles were characterized using nonlinear mixed-effects modeling using Phoenix NLME (Certara Inc. version 8.2). Concentrations below the lower limit of detection (LLOD) were excluded from the analysis. Concentrations below the lower limit of quantitation (LLOQ) were divided by two to obtain an unbiased conservative estimate of the true concentration. One- and two-compartment models with first-order elimination with additive, proportional, and combined error models were considered for the base model. The between-subject variability was normally distributed with a mean equal to 0 and variance equal to ω^2. The allometric scaling exponent for clearance and volume of distribution were fixed at 0.75 and 1, respectively ([Holford, 1996]; [Chung et al., 2021]). The models were run with the FOCE-ELS algorithm and simple run mode. […] Weight was applied a priori to the base model. A sensitivity analysis was performed after the final structural model selection, and the initial estimates were changed to evaluate the robustness of the model.\nThe clinically relevant categorical covariates that were investigated included the major diagnosis category/infection severity, extracorporeal membrane oxygenation (ECMO) status, and surgery status. Covariate investigation was conducted in stepwise covariate search run mode in Phoenix (Phoenix®, version 8.2, Certara, Princeton, NJ) using stepwise forward inclusion followed by stepwise backward elimination. The models were assessed by a reduction or increase in the objective function value (OFV), equal to −2*log likelihood. During forward selection, any covariate that reduced the OFV by > 3.84 [p < 0.05, χ2 distribution with 1 degree of freedom (df)] was significant."}, "[2]": {"conditions": "within 24 h; ref Shimamoto et al., 2021; Le et al., 2013; cited from earlier work"}, "[3]": {"conditions": "ref Chung et al., 2021, Matusik et al., 2022, cited from earlier work", "text": "In pediatric patients, vancomycin pharmacokinetics can be highly variable due to age-related differences in drug absorption, distribution, metabolism, and elimination. Population pharmacokinetic models provide quantitative and semi-quantitative frameworks for optimizing dosing regimens. They achieve this by identifying sources of variability, by determining factors that influence the pharmacokinetic behavior of the drug, and quantifying the magnitude of unexplained variability ([Stockmann et al., 2013])."}, "[4]": {"conditions": "calculated from final model, median weight, ηCl = 0"}, "[5]": {"conditions": "non-parametric bootstrap of final model, 1,000 datasets"}, "[6]": {"conditions": "non-parametric bootstrap, 1,000 datasets"}}, "data": [{"compound": "CN[C@H](CC(C)C)C(=O)N[C@H]1C(=O)N[C@@H](CC(N)=O)C(=O)N[C@H]2C(=O)N[C@H]3C(=O)N[C@H](C(=O)N[C@H](C(=O)O)c4cc(O)cc(O)c4-c4cc3ccc4O)[C@H](O)c3ccc(c(Cl)c3)Oc3cc2cc(c3O[C@@H]2O[C@H](CO)[C@@H](O)[C@H](O)[C@H]2O[C@H]2C[C@](C)(N)[C@H](O)[C@H](C)O2)Oc2ccc(cc2Cl)[C@H]1O", "note": "[vancomycin]", "values": [{"measurement": "Clearance value, patients with severe infections", "setting": "[1]; DIAG = 0 (pneumonia/bacteremia/osteomyelitis/meningitis/deep tissue infection), calculated from final model, median weight (12.6 kg), ηCl = 0", "value": 1.03, "unit": "L/h"}, {"measurement": "Clearance value, patients with mild infections", "setting": "[1]; DIAG = 1 (cellulitis/surgical prevention/neutropenic fever/others), calculated from final model, median weight (12.6 kg), ηCl = 0", "value": 0.63, "unit": "L/h"}, {"measurement": "Clearance value, patients without ECMO", "setting": "[1]; ECMO = 0, calculated from final model for an individual of median weight (12.6 kg), ηCl = 0", "value": 1.03, "unit": "L/h"}, {"measurement": "% difference (reduction) in clearance, ECMO versus non-ECMO patients", "setting": "[1]; [4]", "value": "∼56%"}, {"measurement": "% difference (reduction) in clearance, mild versus severe infections", "setting": "[1]; [4]", "value": "∼39%"}, {"measurement": "tvCL, bootstrap median", "setting": "[1]; [5]", "value": 1.01, "unit": "L/h"}, {"measurement": "tvV, bootstrap median", "setting": "[1]; [5]", "value": 11.85, "unit": "L"}, {"measurement": "dCldDiag, bootstrap median", "setting": "[1]; [6]", "value": "−0.48"}, {"measurement": "dCldECMO, bootstrap median", "setting": "[1]; [6]", "value": "−0.79"}, {"measurement": "tvV, typical value of volume of distribution, final model estimate", "setting": "[1]; one-compartment model, first-order elimination, proportional error, Phoenix NLME FOCE-ELS, IV infusion, 90 critically ill Asian patients, 263 samples, typical individual 12.6 kg, allometric exponent 1 fixed", "value": 11.61, "unit": "L"}, {"measurement": "administered dose excreted unchanged", "setting": "[2]", "value": "approximately 90%"}, {"measurement": "half-life, HDF", "setting": "[3]; dialysis mode hemodiafiltration", "value": 2.1, "unit": "h"}, {"measurement": "half-life, HD", "setting": "[3]; dialysis mode hemodialysis", "value": 3.5, "unit": "h"}]}]}
